From publication PMC12124432, “Antimicrobial Peptide‐Peptoid Macrocycles from the Polymyxin B2 Chemical Space” (Angewandte Chemie (International Ed. in English), 2025)
Bridge positions count the residues as written; N and C are the ends. Square brackets hold non-standard residues; d marks the D form. Peptide text beside a SMILES is read from it. * marks the point of attachment. N(3-phenylpropyl)Gly = O=C(O)CNCCCc1ccccc1; Gly(NCH2CH2Ph) = O=C(O)CNCCc1ccccc1; Gly(N-2-aminoethyl) = NCCNCC(=O)O; Gly(N(CH2)3NH2) = NCCCNCC(=O)O; Gly(N-cPent) = O=C(O)CNC1CCCC1; Heptanoyl = CCCCCCC(=O)*; Nphe = O=C(O)CNCc1ccccc1; Octanoyl = CCCCCCCC(=O)*; Dab = NCC[C@H](N)C(=O)O; NPrGly = CCCNCC(=O)O

Assays:
[1] = Dansyl-polymyxin (DsPMB) displacement assay; type: binding, Pseudomonas aeruginosa; settings: 37 °C, 2.5 µM DsPMB, LPS 3 μg/mL, emission 485 nm; mean ± SD, n = 3
Method: 14. Dansyl-Polymyxin (DsPMB) Displacement Assay
Saturation determination. Dansyl-polymyxin (DsPMB) in water (1.5 mg/mL) and lyophilized lipopolysaccharides from P. aeruginosa were obtained from Merck. LPS were prepared as a 1 mg/mL stock solution in mQ water and stored at 4 °C. The fluorescence saturation of DsPMB with LPS was first determined, by titration (0.25 μM increments, up to 5 μM) of the DsPMB into a 3 μg/mL of LPS (10 mM Tris, 10 mM NaCl buffer, pH 7.4), at 37 °C. The fluorescence was recorded with a Jasco spectrofluorometer FP-8300, with the excitation at λex = 340 nm (5 nm slit width) and recorded from 420 to 650 nm. The fluorescence was recorded two minutes after each addition. Saturation was graphically determined, at a concentration of D sPMB ≈ 2.5 μM (λem = 485 nm). Each measurement was determined in triplicates.
Displacement assay. The displacement effect of the various peptides was determined by measuring the reduction of fluorescence intensity, at 37 °C. Initially, DsPMB (2.5 μM) was mixed with LPS (3 μg/mL) and let it react for 15 minutes before recording the fluorescence […]
intensity (at λem = 485 nm and λex = 340 nm). Then, the peptide was titrated (1 μM increments, up to 10 μM) into the DsPMB/LPS mixture, and the fluorescence was recorded two minutes after the compound addition. The decrease in fluorescence was interpreted as the displacement of DsPMB from the LPS due to competitive binding by the peptide.[12,13] Specific Fluorescence Enhancement
Figure S8. Fluorescence emission of dansyl-polymyxin (DsPMB) in presence of lipopolysaccharide (LPS) extracted from P. aeruginosa (3 µg/mL) in TRIS/NaCl buffer (10 mM, pH 7.4). The fluorophore was excited at 340 nm (5 nm slit width) and recorded from 420 to 650 nm. The data represent mean value from three measurement. Specific fluorescence represents the emission of DsPMB with the non-specific fluorescence (no LPS) deduced.

[2] = Lipid vesicle (carboxyfluorescein) leakage assay; settings: 10 µg mL^−1 compound, 10 mM Tris, 107 mM NaCl, pH 7.4, leakage observed after 220 s
Method: Figure S4. Cytotoxicity of selected compounds against HK-2 cells. The cells were treated with the compound at the desired concentration for 24 h and the viability was determined with an Alamar blue assay. Data of three experiments performed in triplicates were pooled and represented as barplots.
10. Lipid Vesicle Leakage Assay
5(6)-carboxyfluorescein (CF) was purchased from Sigma Aldrich. Egg Yolk Phosphatidylcholine (EYPC), Egg Yolk Phosphatidylglycerol (EYPG) and a Mini-Extruder were purchased from Avanti Polar Lipids.
Vesicles preparation. Egg yolk PC or egg yolk PG thin lipid layers were prepared by evaporating a solution of 100 mg EYPC or EYPG in 4 mL MeOH/CHCl3 (1:1) on a rotary evaporator at room temperature and then dried in vacuo overnight. The resulting film was then hydrated with 2 mL CF buffer (50 mM CF, 10 mM TRIS, 10 mM NaCl, pH 7.4) for 30 min, subjected to freeze-thaw cycles (7×) and extrusion (15×) through a polycarbonate membrane (pore size 100 nm). Extra vesicular components were removed by gel filtration (Sephadex G-50) with 10 mM TRIS, 107 mM NaCl, pH 7.4 buffer. Final conditions: ca. 2.5 mM EYPC or EYPG; inside: 50 mM CF, 10 mM TRIS, 10 mM NaCl, pH 7.4 buffer; outside: 10 mM TRIS, […]
Vesicle leakage assay. EYPC or EYPG vesicle stock solutions (37.5 μL) were diluted to 3000 μL with a buffer (10 mM TRIS, 107 mM NaCl, pH 7.4) in a thermostated fluorescence cuvette (25 °C) and gently stirred (final lipid concentration ca. 10 μg/mL for both EYPG and EYPC).
The desired volume of peptide (1 or 20 mg/mL stock in MilliQ water) was added at t = 45 s to obtain final concentrations of 10 and 50 or 200 μg/mL, and CF efflux was monitored at λem 517 nm (λex 492 nm) as a function of time. Finally, 30 μL of 1.2% Triton X-100 was added to the cuvette (0.012% final concentration) at t = 240 s to reach the maximum intensity.
Fluorescence intensities were then normalized to the maximal emission intensity using I(t) = (It − I0)⁄(I∞ − I0) where I0 = It at peptide addition and I∞ = It at saturation of […]

Structure (SMILES)	Binding to lipopolysaccharide (dansyl-PMB fluorescence displacement) [1]	Membrane disruptive activity, fluorescein leakage from EYPG and EYPC vesicles [2]
CCCCCCCC(=O)N(CCc1ccccc1)CC(=O)N[C@@H](CCCCN)C(=O)N[C@@H](CC(N)=O)C(=O)N[C@H]1CCNC(=O)[C@H](CCCCN)NC(=O)CN(CCCN)C(=O)[C@H](CCCCN)NC(=O)CN(CCC)C(=O)[C@H](CCCCN)NC1=O [EB12] (Octanoyl-[Gly(NCH2CH2Ph)]KN[Dab]K[NPrGly]K[Gly(N(CH2)3NH2)]K; lactam 4-C)	to a similar extent as PMB2 itself	low membrane disruptive activity
CCCCCCC(=O)N[C@H](C(=O)N(CCN)CC(=O)N(CCCc1ccccc1)CC(=O)N[C@H]1CCNC(=O)[C@H](CCCCN)NC(=O)CN(CCCN)C(=O)[C@H](CCCCN)NC(=O)CNC(=O)[C@H](CCCCN)NC1=O)C(C)C [EB13] (Heptanoyl-V[Gly(N-2-aminoethyl)][N(3-phenylpropyl)Gly][Dab]KGK[Gly(N(CH2)3NH2)]K; lactam 4-C)	to a similar extent as PMB2 itself	low membrane disruptive activity
CCCCCCCC(=O)N[C@@H](CCCCN)C(=O)N(CC(=O)N[C@@H](CCCCN)C(=O)N[C@H]1CCNC(=O)[C@H](CCCCN)NC(=O)CN(C2CCCC2)C(=O)CN(CCN)C(=O)[C@H](CCCCN)NC(=O)[C@H](CC(N)=O)NC1=O)Cc1ccccc1 [EB21] (Octanoyl-K[Nphe]K[Dab]NK[Gly(N-2-aminoethyl)][Gly(N-cPent)]K; lactam 4-C)	to a similar extent as PMB2 itself	low membrane disruptive activity
